The target of assay [1] is PIK3CD (Human) (UniProt O00329).
For assay [2] the target is unchanged. Put plainly: Assessment of PIK3CD Kinase Activity (Scintillation Proximity Assay). A general note: Scintillation proximity formats need no separation of bound from free tracer.

In general, IC50 refers to the concentration needed to halve the response being measured. A low value points to greater potency in that assay.

Sequence of PIK3CD (Human) (O00329 whole entry, looked up): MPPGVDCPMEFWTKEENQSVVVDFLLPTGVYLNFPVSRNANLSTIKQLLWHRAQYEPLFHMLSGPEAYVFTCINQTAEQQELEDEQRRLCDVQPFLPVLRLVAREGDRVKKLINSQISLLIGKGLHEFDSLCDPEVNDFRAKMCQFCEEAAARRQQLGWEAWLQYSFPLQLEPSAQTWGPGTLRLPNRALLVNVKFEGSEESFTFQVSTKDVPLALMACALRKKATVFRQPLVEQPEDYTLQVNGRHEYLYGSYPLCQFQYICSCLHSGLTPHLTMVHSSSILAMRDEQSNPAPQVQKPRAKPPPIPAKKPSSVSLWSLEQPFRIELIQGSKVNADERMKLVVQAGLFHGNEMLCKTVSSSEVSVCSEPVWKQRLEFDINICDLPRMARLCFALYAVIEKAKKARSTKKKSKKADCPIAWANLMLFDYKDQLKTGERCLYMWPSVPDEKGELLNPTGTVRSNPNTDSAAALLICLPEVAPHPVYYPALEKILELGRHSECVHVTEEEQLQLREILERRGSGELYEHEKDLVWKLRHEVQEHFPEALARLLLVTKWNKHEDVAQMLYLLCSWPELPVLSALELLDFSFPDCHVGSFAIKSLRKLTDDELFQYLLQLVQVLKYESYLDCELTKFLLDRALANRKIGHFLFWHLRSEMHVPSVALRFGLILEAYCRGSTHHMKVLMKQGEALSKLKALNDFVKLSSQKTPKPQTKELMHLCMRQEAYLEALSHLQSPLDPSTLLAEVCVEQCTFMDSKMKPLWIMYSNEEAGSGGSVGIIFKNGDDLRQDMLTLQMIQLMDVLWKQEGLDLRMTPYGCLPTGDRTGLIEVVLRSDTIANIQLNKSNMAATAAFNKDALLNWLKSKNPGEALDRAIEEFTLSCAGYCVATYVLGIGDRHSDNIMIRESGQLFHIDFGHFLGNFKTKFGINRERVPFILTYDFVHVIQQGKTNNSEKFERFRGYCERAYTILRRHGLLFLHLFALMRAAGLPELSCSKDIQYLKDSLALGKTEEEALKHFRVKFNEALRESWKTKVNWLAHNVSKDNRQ

`COc1c([C@@H](C)n2nc(C)c3c(N)ncnc32)cc(Cl)c(C#N)c1C1CN(C[C@@H](C)O)C1` came in with an IC50 on PIK3CD (Human) [1] of 50 to 200 nM.
`COc1c(C(C)n2nc(C)c3c(N)ncnc32)cc(Cl)c(C#N)c1C1CN(C(=O)C2CC2)C1` (configuration not stated) had an IC50 on PIK3CD (Human) [2] of at most 10 nM.
The same measure, in the same setting: to `CCOc1c(C(C)n2nc(C)c3c(N)ncnc32)cc(C#N)c(C)c1-c1cnn(C)c1` (configuration not stated) belongs at most 10 nM; to `COc1c(C(C)n2nc(C)c3c(N)ncnc32)cc(Cl)c(Cl)c1C1CN(CC(C)(C)O)C1` (configuration not stated), at most 10 nM.
Same read-out and setting: the same measure for `COc1c(C(C)n2nc(C)c3c(N)ncnc32)cc(Cl)c(C)c1-c1cncc(C(=O)N(C)CCO)c1` (configuration not stated): at most 10 nM; for `CCOc1c(C(C)n2nc(C)c3c(N)ncnc32)cc(Cl)c(C#N)c1C1CN(CCOC)C1` (configuration not stated): at most 10 nM; for `CCOc1c(C(C)n2nc(C)c3c(N)ncnc32)cc(C)c(C#N)c1-c1ccc(C(=O)N(C)C)nc1` (configuration not stated): at most 10 nM.
Same read-out and setting: the same measure for `COc1c(C(C)n2nc(C)c3c(N)ncnc32)cc(Cl)c(C)c1-c1cncnc1` (configuration not stated): at most 10 nM.
Consider `CCC(=O)N1CC(c2c(C#N)c(Cl)cc(C(C)n3nc(C)c4c(N)ncnc43)c2OC)C1` (configuration not stated), for which the IC50 against PIK3CD (Human) [2] was at most 10 nM.
Still for that read-out and setting: the same measure for `COc1c(C(C)n2nc(C)c3c(N)ncnc32)cc(Cl)c(C)c1C1CN(C(=O)C2(O)CC2)C1` (configuration not stated): at most 10 nM; for `CCOc1c(C(C)n2nc(C)c3c(N)ncnc32)cc(Cl)c(F)c1C1CN(C)C1` (configuration not stated): at most 10 nM; for `COc1c(C(C)n2nc(C)c3c(N)ncnc32)cc(Cl)c(Cl)c1C1CN(C(C)=O)C1` (configuration not stated): at most 10 nM.
